Assay results taken from PMC8518537, “N‐(Anilinoethyl)amide Melatonergic Ligands with Improved Water Solubility and Metabolic Stability” (Chemmedchem, 2021).
Values after ≈ are worked out from the molar mass of the structure shown. Like-named read-outs stand apart in the source and are kept apart here.

Experiments:
human MT1 receptors = human MT1 receptors (Homo sapiens, UniProt P48039); experiment: Radioligand binding, 2-[125I]iodomelatonin competition at MT1; details: cloned human MT1 in CHO cells; from IC50 by Cheng-Prusoff; mean±SD of three determinations; read-out: MT1 K i
Sequence of human MT1 receptors (P48039 whole entry): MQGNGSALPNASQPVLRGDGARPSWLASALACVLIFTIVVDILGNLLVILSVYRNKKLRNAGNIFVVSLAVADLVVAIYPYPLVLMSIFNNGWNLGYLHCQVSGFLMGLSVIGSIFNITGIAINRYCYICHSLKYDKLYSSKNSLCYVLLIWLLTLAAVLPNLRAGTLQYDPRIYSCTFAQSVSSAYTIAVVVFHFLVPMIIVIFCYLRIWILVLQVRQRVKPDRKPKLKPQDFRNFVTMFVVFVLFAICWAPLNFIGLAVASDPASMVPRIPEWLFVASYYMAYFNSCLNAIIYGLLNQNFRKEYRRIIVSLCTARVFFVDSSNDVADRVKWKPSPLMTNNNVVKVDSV
Protocol: (§1) The in vitro pharmacology experiments were conducted at Cerep (Celle‐Lévescault, France) following radioligand binding and cellular functional assays developed elsewhere.[60, 61, 62]
(§2) After incubation, the % of radioligand binding inhibition was determined via a scintillation counting method. The radioligand binding experiments were performed in triplicate. IC50 values were determined by nonlinear regression analysis of the competition curves using Hill equation curve fitting. The pK i values were calculated from the IC50 values in accordance with the Cheng‐Prusoff equation.[28]

human MT2 receptors = target: T1, human MT2 receptors (Homo sapiens, UniProt P49286); experiment: Radioligand binding, 2-[125I]iodomelatonin competition at MT2; details: cloned human MT2 in CHO cells; from IC50 by Cheng-Prusoff; mean±SD of three determinations; read-out: MT2 K i
T1 sequence (P49286 1-362): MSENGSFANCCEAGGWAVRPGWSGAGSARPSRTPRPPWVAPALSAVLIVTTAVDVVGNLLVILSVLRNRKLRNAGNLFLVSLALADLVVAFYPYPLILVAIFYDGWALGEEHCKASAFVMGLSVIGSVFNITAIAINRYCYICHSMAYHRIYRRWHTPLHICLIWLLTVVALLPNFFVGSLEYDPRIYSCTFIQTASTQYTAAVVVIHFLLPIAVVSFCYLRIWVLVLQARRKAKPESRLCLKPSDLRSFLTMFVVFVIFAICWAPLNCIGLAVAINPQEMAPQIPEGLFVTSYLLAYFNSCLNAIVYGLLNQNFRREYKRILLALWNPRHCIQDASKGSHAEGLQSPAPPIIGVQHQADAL
Protocol: as §1, §2

[1] = Thermodynamic solubility, shake flask method; assay type: physicochemical; details: thermodynamic from solid, room temperature overnight, mean±SD, triplicate
Protocol: Thermodynamic solubility values were measured in two different buffers (pH 1.0; pH 7.4) by the shake flask method.[65] 1 mg of each compound was placed in 1 mL of appropriate buffer and shaken at room temperature overnight. The resulting suspension was centrifuged (10 min, 10000 g, 20 °C) and the supernatant analyzed by HPLC‐UV. Solubility values were interpolated from calibration curves prepared from concentrated DMSO stock solutions of each compound. Reported solubility values are the mean of three measurements±standard deviation.
It consisted of a LC‐10ADvp solvent delivery module, a 20 μL Rheodyne sample injector (Rheodyne LLC, Rohnert Park, CA, USA) and a SPD‐10Avp UV‐VIS detector. PeakSimple 2.83 software was employed for data acquisition and HPLC peak integration. […] Elution conditions were optimized for each compound at a flow rate of 1 mL min^−1 employing mobile phases consisting of water and acetonitrile at different percentages, while UV detection was set at λ = 254 nm.

[2] = Metabolic stability in rat liver microsomes; assay type: in vitro ADME; details: for CLi Rat LM (intrinsic clearance) / half-life at 5 μM: rat liver microsomes 1 mg protein/mL, 5 μM compound, mean±SD; for CLi Rat LM (intrinsic clearance): 37 °C; for half-life at 5 μM: NADPH-regenerating system, pH 7.4, 37 °C, read-out: t 1/2 Rat LM
Protocol: (§3) Each compound (final concentration: 5 μM) was incubated in the presence of rat or human liver microsomes (final concentration: 1 mg protein/mL) and of a NADPH‐regenerating system (final concentrations: 2 mM NADP^+, 10 mM glucose‐6‐phosphate, 0.4 U mL^−1 glucose‐6‐phosphate dehydrogenase, 5 mM MgCl2) in a 10 mM Phosphate Buffered Saline (PBS) solution, pH 7.4, at 37 °C. Compound was added after a 10 min pre‐incubation at 37 °C and. at stated time points, depending on compound kinetics, sample aliquots were withdrawn, metabolic reaction was quenched by acetonitrile addition (1 : 2), and after a centrifugation step (9000 g, 10 min, 4 °C) the supernatant was analyzed by HPLC‐UV‐VIS.
(§4) Apparent half‐lives (t1/2 in min) for the metabolic clearance of compounds were calculated from the pseudo first‐order rate constants (k) obtained by linear regression of the log chromatographic peak area versus time plots and are reported as means of three experiments±standard deviation. Intrinsic clearance (CLi) values of the compounds were calculated using the following equation: CLi (μL×min^−1×mg protein^−1)=k×V where V (μL×mg protein^−1)=incubation volume/mg protein added.
(§5) Pooled rat and human liver microsomes (20 mg/mL) were supplied by BD Biosciences (BD Biosciences, Woburn, MA, USA). Acetonitrile and methanol were HPLC grade and were supplied by Sigma‐Aldrich (Sigma‐Aldrich srl, Milan, Italy). Water was freshly bidistilled before use. All other reagents were purchased in the highest purity available.
(§6) PeakSimple 2.83 software was employed for data acquisition and HPLC peak integration. HPLC columns were a RP‐C18 Supelco Discovery (Supelco, Bellefonte, PA, USA), 5 μm, 150×4.6 mm i.d. for all compounds except 13, and a Phenomenex Gemini, 5 μm, 150×4.6 mm i.d. for compound 13 (Phenomenex). Elution conditions were optimized for each compound at a flow rate of 1 mL min^−1 employing mobile phases consisting of water and acetonitrile at different percentages, while UV detection was set at λ = 254 nm. For compound 13, the mobile phase consisted of a 10 mM ammonium acetate buffer pH 7.0 and methanol and the UV detection was set at λ = 281 nm.

[3] = Metabolic stability in human liver microsomes; assay type: in vitro ADME; details: for CLi Human LM (intrinsic clearance) / half-life at 5 μM: human liver microsomes 1 mg protein/mL, 5 μM compound, mean±SD; for CLi Human LM (intrinsic clearance): 37 °C; for half-life at 5 μM: NADPH-regenerating system, pH 7.4, 37 °C, read-out: t 1/2 Human LM
Protocol: as §3, §4, §5, §6

[4] = Experimental lipophilicity, shake-flask n-octanol/water; assay type: physicochemical; details: n-octanol/water (MOPS buffer); n-octanol/50 mM MOPS buffer pH 7.4, 25±1 °C; mean±SD of three; read-out: Log D oct,7.4
Protocol: Chosen buffer was 50 mM zwitterionic MOPS (3‐morpholinopropanesulfonic acid), pH 7.4 to avoid ionic couple partitioning, with ionic strength adjusted to 0.15 M by KCl addition. Compounds, after partitioning overnight, and dilution of both phases with methanol, were dosed in the HPLC‐UV system, as detailed below. Reported log D oct,7.4 values are the mean of three measurements±standard deviation.
HPLC columns were a RP‐C18 Supelco Discovery (Supelco, Bellefonte, PA, USA), 5 μm, 150×4.6 mm i.d. for all compounds except 13, and a Phenomenex Gemini, 5 μm, 150×4.6 mm i.d. for compound 13 (Phenomenex). Elution conditions were optimized for each compound at a flow rate of 1 mL min^−1 employing mobile phases consisting of water and acetonitrile at different percentages, while UV detection was set at λ = 254 nm. For compound 13, the mobile phase consisted of a 10 mM ammonium acetate buffer pH 7.0 and methanol and the UV detection was set at λ = 281 nm.

[5] = buffer pH 1.0, simulated gastric fluid, pH 1.0 buffer, read-out: Solubility pH 1.0
[6] = buffer pH 7.4, aqueous buffer, pH 7.4 buffer, read-out: Solubility pH 7.4

Compound	Ki (human MT1 receptors)	Ki (human MT2 receptors)	solubility [1, 5]	solubility [1, 6]	CLi Rat LM (intrinsic clearance) [2]	half-life at 5 μM [2]	CLi Human LM (intrinsic clearance) [3]	half-life at 5 μM [3]	logD [4]	increase of rat microsomal stability compared to UCM765 ([2]; rat liver microsomes, versus UCM765)	increase of human microsomal stability compared to UCM765 ([3]; human liver microsomes, versus UCM765)
COc1cccc(N(CCNC(N)=O)c2ccccc2)c1 [Compound 6 a, 1‐{2‐[(3‐Methoxyphenyl)phenylamino]ethyl}urea]	> 100 nM	10 ± 0.13 nM	364 ± 3.7 µg/mL (≈ 1280 µM)	311.4 ± 2.6 µg/mL (≈ 1090 µM)	44.2±1.0 μL min^−1 mg prot^−1	15.7 ± 0.4 min	9.1±1.5 μL min^−1 mg prot^−1	77.5 ± 13.4 min	2.65 ± 0.02	–	–
COc1cccc(N(CCNC(C)=O)c2cccc(O)c2)c1 [Compound 15, N ‐{2‐[(3‐Hydroxyphenyl)(3‐methoxyphenyl)amino]ethyl} acetamide]	53 ± 1.6 nM	1.4 ± 0.15 nM	95.9 ± 4.2 µg/mL (≈ 319 µM)	119 ± 2.8 µg/mL (≈ 395 µM)	217.3±44.6 μL min^−1 mg prot^−1	3.3 ± 0.6 min	10.5±0.4 μL min^−1 mg prot^−1	66.2 ± 2.8 min	2.42 ± 0.02	approximately 1.5 fold	approximately 1.5 fold
COc1cccc(N(CCNC(C)=O)c2ccncc2)c1 [Compound 13, N ‐{2‐[(3‐Methoxyphenyl)(pyridine‐4‐yl)amino]ethyl}acetamide]	> 100 nM	> 100 nM	> 1000 µg/mL	1020 ± 93.7 µg/mL (≈ 3570 µM)	–	–	–	–	0.41 ± 0.01	–	–
CC(=O)NCCN(c1ccc(F)cc1)c1cccc(Br)c1 [Compound 3, N‐{2‐[(3‐bromophenyl)‐(4‐fluorophenyl)amino]ethyl}acetamide, reference compound]	> 100 nM	1.4 ± 0.08 nM	6.9 ± 0.1 µg/mL (≈ 19.6 µM)	5.1 ± 0.2 µg/mL (≈ 14.5 µM)	38.1±6.0 μL min^−1 mg prot^−1	18.2 ± 2.8 min	9.7±0.5 μL min^−1 mg prot^−1	71.2 ± 3.4 min	3.84 ± 0.05	–	–

Other lines, results leading:

Ki (human MT1 receptors)	Ki (human MT2 receptors)	solubility [1, 5]	solubility [1, 6]	CLi Rat LM (intrinsic clearance) [2]	half-life at 5 μM [2]	CLi Human LM (intrinsic clearance) [3]	half-life at 5 μM [3]	logD [4]	increase of rat microsomal stability compared to UCM765 ([2]; rat liver microsomes, versus UCM765)	increase of human microsomal stability compared to UCM765 ([3]; human liver microsomes, versus UCM765)	Compound
> 100 nM	2.1 ± 0.15 nM	> 1000 µg/mL	110 ± 6.9 µg/mL (≈ 351 µM)	247.3±34.2 μL min^−1 mg prot^−1	2.9 ± 0.5 min	96.7±6.3 μL min^−1 mg prot^−1	7.2 ± 0.5 min	3.44 ± 0.02	–	–	COc1cccc(N(CCNC(C)=O)CCc2ccccc2)c1 [Compound 12, N ‐{2‐[(3‐Methoxyphenyl)(phenethyl)amino]ethyl}acetamide]
1.6 ± 0.14 nM	0.29 ± 0.1 nM	125 ± 5 µg/mL (≈ 440 µM)	104 ± 5 µg/mL (≈ 366 µM)	408±85 μL min^−1 mg prot^−1	1.7 ± 0.4 min	17±1 μL min^−1 mg prot^−1	40.8 ± 1.1 min	2.93 ± 0.01	–	–	COc1cccc(N(CCNC(C)=O)c2ccccc2)c1 [Compound 2, N‐{2‐[(3‐methoxyphenyl)phenylamino]ethyl}acetamide, reference compound]
32 ± 0.8 nM	1.7 ± 0.13 nM	> 1000 µg/mL	340 ± 9.7 µg/mL (≈ 1140 µM)	468.9±12.9 μL min^−1 mg prot^−1	1.5 ± 0.1 min	61.9±3.8 μL min^−1 mg prot^−1	11.2 ± 0.7 min	3.11 ± 0.02	–	–	COc1ccc(-c2ccccc2)c(N(C)CCNC(C)=O)c1 [Compound 18, N ‐{2‐[(4‐Methoxy‐[1,1’‐biphenyl]‐2‐yl)(methylamino)]ethyl}acetamide]
20 ± 0.45 nM	0.65 ± 0.03 nM	14.9 ± 0.6 µg/mL (≈ 47.5 µM)	10.2 ± 1.7 µg/mL (≈ 32.5 µM)	98.1±6.8 μL min^−1 mg prot^−1	7.1 ± 0.5 min	45.1±3.0 μL min^−1 mg prot^−1	15.4 ± 1 min	3.3 ± 0.02	–	–	CCNC(=O)NCCN(c1ccccc1)c1cccc(OC)c1 [Compound 6 b, 1‐Ethyl‐3‐{2‐[(3‐methoxyphenyl)phenylamino]ethyl}urea]
